Assay results reported in US11547681B2, “N-acylethanolamide derivatives and uses thereof” (ELIEM THERAPEUTICS, INC., priority 2016, dated 2023).

Columns and labels:
[1] = in vitro; settings: male, Beagle, dog
Experimental: (§1) Reaction mixture, minus cofactors, was prepared as described below. Test article was added into the reaction mixture at a final concentration of 1 μM. […] An aliquot of the reaction mixture (without cofactor cocktail) was equilibrated in a shaking water bath at 37° C. for 3 minutes. The reaction was initiated by the addition of cofactor cocktail, and the mixture was incubated in a shaking water bath at 37° C. Aliquots (100 μL) were withdrawn at 0, 10, 20, 30, and 60 minutes. Test article samples were immediately combined with 300 μL of ice-cold acetonitrile containing 1% formic acid. Control samples were immediately combined with 400 μL of ice-cold 50/50 acetonitrile (ACN)/dH2O containing 0.1% formic acid and internal standard to terminate the reaction. Samples were then mixed and centrifuged to precipitate proteins. Calibration standards were prepared in matched matrix. Samples and standards were assayed by LC-MS/MS using electrospray ionization for both the dosed prodrug and the expected drug (PEA). Analytical conditions are outlined in Appendix 8-1. Test article concentration at each time point was compared to test article concentration at time 0 to determine the percent remaining at each time point. Halflives were calculated using GraphPad software, fitting to a single-phase exponential decay equation.
as §1, with “for 5” for “for 3”, “minutes. Reaction” for “minutes. The reaction”, “and” for “and the”, “both” for “both the”, “Appendix 10-1.” for “Appendix 8-1.”
(§2) Reaction mixture, minus cofactors, was prepared as described below. Test article was added into the reaction mixture at a final concentration of 1 μM. […] An aliquot of the reaction mixture (without cofactor cocktail) was equilibrated in a shaking water bath at 37° C. for 3 minutes. Reaction was initiated by the addition of cofactor cocktail, and the mixture was incubated in a shaking water bath at 37° C. Aliquots (100 μL) were withdrawn at 0, 10, 20, 30, and 60 minutes. Test article samples were immediately combined with 300 μL of ice-cold acetonitrile containing 1% formic acid. Control samples were immediately combined with 400 μL of ice-cold 50/50 acetonitrile (ACN)/dH2O containing 0.1% formic acid and internal standard to terminate the reaction. Samples were then mixed and centrifuged to precipitate proteins. Calibration standards were prepared in matched matrix. Samples and standards were assayed by LC-MS/MS using electrospray ionization for both dosed prodrug and expected drug (PEA). Analytical conditions are outlined in Appendix 13-1. Test article concentration at each time point was compared to test article concentration at time 0 to determine the percent remaining at each time point. Halflives were calculated using GraphPad software, fitting to a single-phase exponential decay equation.

[2] = in vitro; settings: both, human, 1 μM
Experimental: (§3) The reaction mixture, minus cofactors, was prepared as described below. The test article was added into the reaction mixture at a final concentration of 1 μM. […] An aliquot of the reaction mixture (without cofactor cocktail) was equilibrated in a shaking water bath at 37° C. for 3 minutes. The reaction was initiated by the addition of cofactor cocktail, and the mixture was incubated in a shaking water bath at 37° C. Aliquots (100 μL) were withdrawn at 0, 10, 20, 30, and 60 minutes. All samples were immediately combined with 400 uL of icecold 50/50 acetonitrile/H2O containing 0.1% formic acid and internal standard to terminate the reaction. The samples were then mixed and centrifuged to precipitate proteins. Calibration standards were prepared in matched matrix. All samples and standards were assayed by LC-MS/MS using electrospray ionization for both the dosed prodrug I-9 and the expected drug (PEA). Analytical conditions are outlined in Appendix 4-1. The test article concentration at each time point was compared to the test article concentration at time 0 to determine the percent remaining at each time point. Half-lives were calculated using GraphPad software, fitting to single-phase exponential decay equation.
as §1
as §2, with “for 5” for “for 3”, “and” for “and the”, “Appendix 10-1.” for “Appendix 13-1.”
(§4) Reaction mixture, minus cofactors, was prepared as described below.

[3] = in vitro; settings: male, Sprague-Dawley, rat, 1 μM
Experimental: as §3, §1
as §2, with “for 5” for “for 3”, “and” for “and the”, “Appendix 10-1.” for “Appendix 13-1.”
as §4

- Concentration (μM) of analyte PEA, 0 min ([1]; 0 min, 1 μM): 0.38 µM
- Concentration (μM) of analyte PEA, 10 min ([1]; 10 min, 1 μM): 0.36 µM
- Concentration (μM) of analyte PEA, 20 min ([1]; 20 min, 1 μM): 0.55 µM
- Concentration (μM) of analyte PEA, 30 min ([1]; 30 min, 1 μM): 0.51 µM
- Concentration (μM) of analyte PEA, 60 min ([1]; 60 min, 1 μM): 0.50 µM
- % Remaining of Initial (n = 1), 0 min ([1]; s9, 0 h, 1 μM): 100%
- % Remaining of Initial (n = 1), 10 min ([1]; s9, 10 min, 1 μM): 1.1%
- % Remaining of Initial (n = 1), 20 min ([1]; s9, 20 min, 1 μM): <1.0%
- % Remaining of Initial (n = 1), 30 min ([1]; s9, 0.5 h, 1 μM): <1.0%
- % Remaining of Initial (n = 1), 60 min ([1]; s9, 1 h, 1 μM): <1.0%
- microsomal CLint at 1 μM ([1]; s9, CLint (mL/min/mg protein)): 452 µL/min/mg
- half-life at 1 μM ([1]; s9, Half-life (min)): 1.5 min
- Concentration (μM) of analyte PEA, 0 min ([2]; 0 min): 0.090 µM
- Concentration (μM) of analyte PEA, 10 min ([2]; 10 min): 0.46 µM
- Concentration (μM) of analyte PEA, 20 min ([2]; 20 min): 0.62 µM
- Concentration (μM) of analyte PEA, 30 min ([2]; 30 min): 0.63 µM
- Concentration (μM) of analyte PEA, 60 min ([2]; 60 min): 0.48 µM
- % Remaining of Initial (n = 1), 0 min ([2]; s9, 0 h): 100%
- % Remaining of Initial (n = 1), 10 min ([2]; s9, 10 min): 46%
- % Remaining of Initial (n = 1), 20 min ([2]; s9, 20 min): 22%
- % Remaining of Initial (n = 1), 30 min ([2]; s9, 0.5 h): 9.8%
- % Remaining of Initial (n = 1), 60 min ([2]; s9, 1 h): 3.8%
- Concentration (μM) of analyte PEA, 0 min ([3]; 0 min): 0.042 µM
- Concentration (μM) of analyte PEA, 10 min ([3]; 10 min): 0.24 µM
- Concentration (μM) of analyte PEA, 20 min ([3]; 20 min): 0.35 µM
- Concentration (μM) of analyte PEA, 30 min ([3]; 30 min): 0.47 µM
- Concentration (μM) of analyte PEA, 60 min ([3]; 60 min): 0.60 µM
- % Remaining of Initial (n = 1), 0 min ([3]; s9, 0 h): 100%
- % Remaining of Initial (n = 1), 10 min ([3]; s9, 10 min): 60%
- % Remaining of Initial (n = 1), 20 min ([3]; s9, 20 min): 37%
- % Remaining of Initial (n = 1), 30 min ([3]; s9, 0.5 h): 31%
- % Remaining of Initial (n = 1), 60 min ([3]; s9, 1 h): 13%
Structure (SMILES): CCCCCCCCCCCCCCCC(=O)NCCOC(=O)CCC(=O)OC[C@H]1O[C@@](CO)(O[C@H]2O[C@H](CO)[C@@H](O)[C@H](O)[C@H]2O)[C@@H](O)[C@@H]1O [Compound I-7]
